The source of these data is publication PMC6458995, “MAP4K4 Inhibition Promotes Survival of Human Stem Cell-Derived Cardiomyocytes and Reduces Infarct Size In Vivo” (Cell Stem Cell, 2019).

The IC50 is the concentration that inhibits the measured activity by half. Low values mean inhibition by little substance, high ones a need for much substance. As usually defined, the Cmax is the maximum level reached in the sampled fluid or tissue. In general, Vd refers to the apparent volume that relates the amount in the body to the concentration in plasma or blood. One may read the clearance as a measure of how efficiently the substance is removed, as volume per time. Read a high clearance as efficient removal. For orientation: half-life means how long it takes for the measured level to halve. A low value points to rapid decline. Broadly, the AUC(0-inf) is total exposure, with the tail of the curve extrapolated. The low end stands for low exposure, the high end for high exposure. The term Tmax denotes the time from dosing to the highest level.

One data set deals with T1, Aurora B (Homo sapiens, UniProt Q96GD4).
T1 construct: lines 1-140) and Reaction Biology
T1 sequence (Q96GD4 whole entry): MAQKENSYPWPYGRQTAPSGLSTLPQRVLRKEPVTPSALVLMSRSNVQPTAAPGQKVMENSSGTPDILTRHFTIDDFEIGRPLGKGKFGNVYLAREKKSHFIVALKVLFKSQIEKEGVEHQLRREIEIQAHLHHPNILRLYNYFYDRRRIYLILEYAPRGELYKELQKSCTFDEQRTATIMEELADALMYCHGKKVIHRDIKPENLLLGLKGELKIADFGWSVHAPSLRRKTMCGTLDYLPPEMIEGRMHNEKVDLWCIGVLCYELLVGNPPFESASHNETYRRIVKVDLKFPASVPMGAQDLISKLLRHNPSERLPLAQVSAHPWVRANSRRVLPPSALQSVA
Nature of the data set: HTRF Transcreener ADP kinase assay. It counts as biochemical. As for the experimental part: (§1) MAP4K4 kinase activity was monitored using the CisBio HTRF Transcreener ADP assay, a competitive immunoassay with a reproducible Z’ > 0.6. In the detection step, endogenous ADP and d2-labeled ADP compete for binding an anti-ADP monoclonal antibody labeled with Eu^3+ cryptate. A ratiometric fluorescent readout is used at 665 and 620 nm. […] Assays were run in Greiner low volume plates with a final reaction volume of 10 μl. Percent inhibition was calculated from 100% activity of MAP4K4 (DMSO only) and 0% activity (no enzyme added). Data were either reported as % inhibition at a single dose or as pIC50 values derived from dose response curves (pIC50 = -log[IC50]).
(§2) Kinase selectivity profiling was performed by the International Centre for Kinase Profiling, MRC Protein Phosphorylation and Ubiquitylation Unit (141 kinases; Premier Screen, http://www.kinase-screen.mrc.ac.uk), using a [γ-^33P]ATP filter binding assay ([Bain et al., 2007]). Compounds were screened at 1 μM. For key hits, pIC50 values were then determined by HTRF as above. More complete kinome profiling was performed by Reaction Biology (376 kinases). Stability in mouse and human liver microsomes was determined by Cyprotex.
On the technique in general: TR-FRET usually uses a lanthanide donor and a delayed reading to cut background.

The target in another data set is T2, GLK/MAP4K3 (Homo sapiens, UniProt Q8IVH8).
T2 sequence (Q8IVH8 1-894): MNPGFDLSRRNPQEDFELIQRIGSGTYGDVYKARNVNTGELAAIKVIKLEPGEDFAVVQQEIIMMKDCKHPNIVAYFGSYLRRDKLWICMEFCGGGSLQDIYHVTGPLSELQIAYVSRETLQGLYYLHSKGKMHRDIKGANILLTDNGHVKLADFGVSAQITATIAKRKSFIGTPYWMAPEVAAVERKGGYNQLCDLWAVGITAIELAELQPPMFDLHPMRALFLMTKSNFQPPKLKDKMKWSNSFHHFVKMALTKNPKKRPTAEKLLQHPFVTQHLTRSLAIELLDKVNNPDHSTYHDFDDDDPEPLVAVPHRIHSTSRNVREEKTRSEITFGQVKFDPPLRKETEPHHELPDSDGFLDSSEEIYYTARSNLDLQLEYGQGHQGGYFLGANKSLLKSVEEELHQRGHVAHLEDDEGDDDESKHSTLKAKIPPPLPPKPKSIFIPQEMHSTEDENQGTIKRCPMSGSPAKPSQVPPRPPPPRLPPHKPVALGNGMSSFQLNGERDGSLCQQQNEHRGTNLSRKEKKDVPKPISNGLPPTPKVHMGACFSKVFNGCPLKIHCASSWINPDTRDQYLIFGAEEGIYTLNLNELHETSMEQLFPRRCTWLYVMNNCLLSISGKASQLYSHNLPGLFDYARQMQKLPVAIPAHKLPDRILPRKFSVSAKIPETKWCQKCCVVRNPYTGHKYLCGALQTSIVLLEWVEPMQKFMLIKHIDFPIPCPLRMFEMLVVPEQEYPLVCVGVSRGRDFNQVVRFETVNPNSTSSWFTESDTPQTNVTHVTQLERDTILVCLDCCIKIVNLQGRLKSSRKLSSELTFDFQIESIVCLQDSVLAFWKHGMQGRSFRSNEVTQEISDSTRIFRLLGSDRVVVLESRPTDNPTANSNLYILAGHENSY
Nature of the data set: HTRF Transcreener ADP kinase assay. It counts as biochemical. Particulars: for IC50: HTRF Transcreener ADP assay. As for the experimental part:
as §1, §2

Data set [1] is described as follows: IV PK (plasma concentrations after intravenous administration). The format is in vivo, mice. Particulars: IV PK (1 mg kg^−1); for Cmax / Vd / clearance / half-life: mouse, mice, plasma.
In another data set the target is TNIK/MAP4K7 (Homo sapiens, UniProt Q9UKE5). Nature of the data set: HTRF Transcreener ADP kinase assay. The format is biochemical. As for the experimental part: (§3) In the detection step, endogenous ADP and d2-labeled ADP compete for binding an anti-ADP monoclonal antibody labeled with Eu^3+ cryptate. A ratiometric fluorescent readout is used at 665 and 620 nm. […] Assays were run in Greiner low volume plates with a final reaction volume of 10 μl. […] Data were either reported as % inhibition at a single dose or as pIC50 values derived from dose response curves (pIC50 = -log[IC50]). Kinase selectivity profiling was performed by the International Centre for Kinase Profiling, MRC Protein Phosphorylation and Ubiquitylation Unit (141 kinases; Premier Screen, http://www.kinase-screen.mrc.ac.uk), using a [γ-^33P]ATP filter binding assay ([Bain et al., 2007]). Compounds were screened at 1 μM. For key hits, pIC50 values were then determined by HTRF as above. […] Stability in mouse and human liver microsomes was determined by Cyprotex.
Sequence of TNIK/MAP4K7 (Q9UKE5 whole entry): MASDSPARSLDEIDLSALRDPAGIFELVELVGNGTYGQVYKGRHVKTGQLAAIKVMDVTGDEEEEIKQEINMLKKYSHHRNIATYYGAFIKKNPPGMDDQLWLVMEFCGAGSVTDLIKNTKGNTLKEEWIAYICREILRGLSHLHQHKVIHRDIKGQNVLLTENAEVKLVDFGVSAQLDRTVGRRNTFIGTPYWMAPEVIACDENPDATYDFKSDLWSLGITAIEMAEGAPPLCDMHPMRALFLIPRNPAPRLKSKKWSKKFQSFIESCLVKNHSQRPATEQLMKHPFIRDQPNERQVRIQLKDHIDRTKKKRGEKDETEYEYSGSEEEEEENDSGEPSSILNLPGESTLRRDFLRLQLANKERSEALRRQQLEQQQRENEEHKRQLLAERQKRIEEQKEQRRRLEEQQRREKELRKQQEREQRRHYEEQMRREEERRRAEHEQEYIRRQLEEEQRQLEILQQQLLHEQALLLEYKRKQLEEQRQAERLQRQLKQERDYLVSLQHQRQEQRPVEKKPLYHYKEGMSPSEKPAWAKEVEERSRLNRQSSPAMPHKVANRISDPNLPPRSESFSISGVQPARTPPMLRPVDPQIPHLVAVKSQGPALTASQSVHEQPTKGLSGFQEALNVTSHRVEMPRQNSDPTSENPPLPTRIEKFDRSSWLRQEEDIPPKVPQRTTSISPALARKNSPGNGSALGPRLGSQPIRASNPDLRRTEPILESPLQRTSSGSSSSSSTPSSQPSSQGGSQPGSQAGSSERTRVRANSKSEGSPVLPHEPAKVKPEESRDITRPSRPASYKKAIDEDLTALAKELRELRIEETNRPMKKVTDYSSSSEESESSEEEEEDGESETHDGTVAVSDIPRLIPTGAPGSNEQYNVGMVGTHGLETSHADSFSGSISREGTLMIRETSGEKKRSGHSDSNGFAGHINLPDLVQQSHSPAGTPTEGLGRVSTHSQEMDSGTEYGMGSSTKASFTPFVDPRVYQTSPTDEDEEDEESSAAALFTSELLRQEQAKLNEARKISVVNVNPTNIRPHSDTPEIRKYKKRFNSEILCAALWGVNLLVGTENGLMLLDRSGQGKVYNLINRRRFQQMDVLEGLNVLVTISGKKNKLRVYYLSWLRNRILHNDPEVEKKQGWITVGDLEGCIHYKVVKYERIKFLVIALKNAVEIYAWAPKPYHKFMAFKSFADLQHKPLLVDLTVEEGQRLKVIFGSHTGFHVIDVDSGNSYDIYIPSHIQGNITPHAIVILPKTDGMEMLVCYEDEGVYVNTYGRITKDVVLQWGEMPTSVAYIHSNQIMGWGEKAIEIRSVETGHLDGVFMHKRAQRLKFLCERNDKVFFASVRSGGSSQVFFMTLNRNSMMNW

In the next data set the target is MINK1/MAP4K6 (Homo sapiens, UniProt Q8N4C8). The experiment in a line: HTRF Transcreener ADP kinase assay. The format is biochemical. How it is done:
as §3

A further data set in a line: Oral PK. It counts as in vivo, female CD-1 mice. Conditions: for AUC(0-inf) / Cmax / Tmax / half-life: female, CD-1, mouse, mice, plasma. How it is done: In vivo pharmacokinetic profiling was performed in female CD-1 mice, using 3 animals per time point. First, 30% w/v Kleptose as excipient was dissolved in water and vortexed gently for several min. Next, 30 mg of the test compound was dissolved into 0.6 mL of DMSO, for a concentration of 50 mg ml^-1, and 4.5 mL of the Kleptose solution was added to 0.5 mL of the test compound solution. A precipitate forms, which re-dissolves over 2-5 min, leaving a clear or slightly hazy solution with a final concentration of 5 mg ml^-1. The dosing solution is used as soon as practicable, vortexing immediately prior to use. This amount was sufficient formulation for 25 doses of 200 μL (20 g mouse). Compounds were administered orally at 50 mg kg^-1, with terminal blood (plasma) sampling at 10 min, 30 min, 1 h, 2.5 h, 5 h, 10 h, and 20 h.

Sequence of MINK1/MAP4K6 (Q8N4C8 whole entry): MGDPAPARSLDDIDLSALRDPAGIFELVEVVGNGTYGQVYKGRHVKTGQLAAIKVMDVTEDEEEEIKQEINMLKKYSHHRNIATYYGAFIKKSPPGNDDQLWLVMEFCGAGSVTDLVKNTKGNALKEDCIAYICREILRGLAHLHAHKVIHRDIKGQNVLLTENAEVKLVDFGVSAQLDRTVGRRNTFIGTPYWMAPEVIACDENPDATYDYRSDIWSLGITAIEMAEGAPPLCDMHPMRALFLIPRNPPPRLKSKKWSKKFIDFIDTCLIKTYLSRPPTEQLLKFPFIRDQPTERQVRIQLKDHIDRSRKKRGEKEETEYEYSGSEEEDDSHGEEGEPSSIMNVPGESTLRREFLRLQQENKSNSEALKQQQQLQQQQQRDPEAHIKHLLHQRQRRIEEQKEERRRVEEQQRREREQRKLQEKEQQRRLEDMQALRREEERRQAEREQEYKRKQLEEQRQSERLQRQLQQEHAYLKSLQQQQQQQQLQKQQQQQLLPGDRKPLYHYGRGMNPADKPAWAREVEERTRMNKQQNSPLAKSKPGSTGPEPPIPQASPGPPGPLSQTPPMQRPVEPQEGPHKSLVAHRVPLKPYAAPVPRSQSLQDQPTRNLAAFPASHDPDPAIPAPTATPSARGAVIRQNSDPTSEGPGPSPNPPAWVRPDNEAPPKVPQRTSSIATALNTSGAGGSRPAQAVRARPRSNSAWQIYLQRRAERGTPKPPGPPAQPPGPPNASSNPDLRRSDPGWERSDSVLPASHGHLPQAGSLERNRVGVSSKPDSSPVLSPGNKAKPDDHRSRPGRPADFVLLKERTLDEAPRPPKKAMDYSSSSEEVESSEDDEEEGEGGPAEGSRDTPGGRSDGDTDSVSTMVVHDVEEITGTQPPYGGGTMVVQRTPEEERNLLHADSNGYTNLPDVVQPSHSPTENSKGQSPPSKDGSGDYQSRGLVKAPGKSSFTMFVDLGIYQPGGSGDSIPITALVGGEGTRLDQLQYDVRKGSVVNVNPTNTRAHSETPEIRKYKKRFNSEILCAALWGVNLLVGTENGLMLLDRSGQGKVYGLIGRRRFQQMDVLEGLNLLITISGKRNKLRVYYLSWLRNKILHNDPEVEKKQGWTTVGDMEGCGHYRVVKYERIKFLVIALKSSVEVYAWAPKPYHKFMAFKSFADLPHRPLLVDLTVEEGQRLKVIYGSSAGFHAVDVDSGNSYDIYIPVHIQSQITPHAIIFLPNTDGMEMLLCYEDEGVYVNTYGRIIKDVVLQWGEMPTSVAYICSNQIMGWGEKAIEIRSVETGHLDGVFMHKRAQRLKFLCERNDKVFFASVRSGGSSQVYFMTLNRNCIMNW

Turning to `COCCOc1ccc(-c2cn(-c3ccccc3)c3nc[nH]c(=O)c23)cc1` [DMX-5804, 5-[4-(2-methoxy-ethoxy)-phenyl]-7-phenyl-3,7-dihydro-pyrrolo[2,3-d]pyrimidin-4-one], the “DMX-5804 vs F1386-0303” value on Aurora B (ratio of fold selectivity) is listed as 1.47. Besides, the IC50 against GLK/MAP4K3 (GLK/MAP4K3) was 11.2 µM. The “Fold Selectivity” value at GLK/MAP4K3 (GLK/MAP4K3 versus MAP4K4) is given as 3981. Besides, the “DMX-5804 vs F1386-0303” value at GLK/MAP4K3 (ratio of fold selectivity, GLK/MAP4K3) stood at 4.57. In data set [1], this compound had a Cmax of 1590 nM, a Vd of 1.22 L/kg, a clearance of 41.7 mL/min/kg and a half-life of 0.6 h. Moreover, in data set [1] (ratio), the “Cl, DMX-5804 versus F1386-0303” value was determined as 0.47; the “Cmax, DMX-5804 versus F1386-0303” value is 0.49; the “Vd, DMX-5804 versus F1386-0303” value worked out at 1.16; the “t1/2, DMX-5804 versus F1386-0303” value was found to be 6.00. In addition, the half-inhibitory concentration (IC50) at TNIK/MAP4K7 is 0.011 µM. Also, on MINK1/MAP4K6, half-maximal inhibition (IC50) was put at 0.00661 µM. In addition, the “improvement of free plasma concentration over the initial inhibitor” value in the data set “Oral PK” (50 mg kg^−1 oral dose, versus F1386-0303) was “more than 80 fold”. Moreover, in the data set “Oral PK” (Oral PK (50 mg kg^−1)), the AUC(0-inf) was 63.7 µM·h, the concentration peaked (Cmax) at 13800 nM, the Tmax stood at 1 h and the half-life is 1.8 h. Also, in the data set “Oral PK” (ratio, Oral PK (50 mg kg^−1)), the “AUCinf, DMX-5804 versus F1386-0303” value came to 29.48; the “Cmax, DMX-5804 versus F1386-0303” value was 46.94; the “Tmax, DMX-5804 versus F1386-0303” value stood at 1.00; the “t1/2, DMX-5804 versus F1386-0303” value was 0.49.

On to `Oc1ncnc2c1c(-c1ccccc1)cn2-c1ccccc1` [F1386-0303, 5,7-diphenyl-7H-pyrrolo[2,3-d]pyrimidin-4-ol], for which the IC50 on Aurora B (HTRF Transcreener ADP assay) is 13.2 µM. In addition, the IC50 at GLK/MAP4K3 (GLK/MAP4K3) is 30.2 µM. In data set [1], the Cmax is 3260 nM, the Vd was 1.05 L/kg, the clearance was 88.8 mL/min/kg and the half-life was 0.1 h. For the same compound, half-maximal inhibition against TNIK/MAP4K7 (IC50) required 0.0933 µM. Also, at MINK1/MAP4K6, inhibition was half-maximal at 0.038 µM (IC50). Moreover, in the data set “Oral PK” (Oral PK (50 mg kg^−1)), the AUC(0-inf) is 2.16 µM·h, the Cmax was determined as 295 nM, the Tmax was 1 h and the half-life is 3.7 h.
